Measured values: patent US12281122B1, “PI3K inhibitors” (Cogent Biosciences, Inc., priority 2023, dated 2025)

Tests used:
[1] = system: SKBR3 (PI3Kα-Wild Type) cell line; test: HTRF phospho-AKT(S473) cell assay in SKBR3 cells; assay type: cell-based, human; conditions: Homo sapiens, SK-BR-3; SKBR3 (PI3Kα-Wild Type) cells, HTRF phospho-AKT(S473), 2 hours compound incubation, PDGF-BB stimulated
Method in brief: (§1)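 Cells plated overnight (T47D in RPMI/10% FBS/0.2 units/mL insulin; SKBR3 in McCoy's 5A/10% FBS), then given 12-point 1:3 compound series (top 5 μM T47D, 10 μM SKBR3; ≤0.5% DMSO) for 2 h at 37° C. SKBR3 stimulated with 70 ng/ml PDGF-BB for final 15 min. Lysate pAKT(S473) by HTRF; IC50 calculated.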

[2] = system: T47D (PI3Kα-H1047R) cell line; test: HTRF phospho-AKT(S473) cell assay in T47D cells; assay type: cell-based, human; conditions: Homo sapiens; T47D (PI3Kα-H1047R) cells, HTRF phospho-AKT(S473), 2 hours compound incubation
Method in brief: as §1

SMILES	IC50 [1]	IC50 [2]
Cc1ccc(C2CCN(c3nc4c([C@@H](C)Nc5ccc(Cl)nc5C(=O)NS(C)(=O)=O)cc(F)cc4c(=O)n3C)CC2)cn1 [Compound 365, (R)-6-chloro-3-((1-(6-fluoro-3-methyl-2-(4-(6-methylpyridin-3-yl)piperidin-1-yl)-4-oxo-3,4-dihydroquinazolin-8-yl)ethyl)amino)-N-(methylsulfonyl) picolinamide]	1 to 5 µM	< 0.25 µM
C[C@@H](Nc1ccc(Cl)nc1C(=O)NS(C)(=O)=O)c1cc(F)cc2c(=O)n(C)c(N3CCC(c4ccn(C)n4)CC3)nc12 [Compound 366, (R)-6-chloro-3-((1-(6-fluoro-3-methyl-2-(4-(1-methyl-1H-pyrazol-3-yl)piperidin-1-yl)-4-oxo-3,4-dihydroquinazolin-8-yl)ethyl)amino)-N-(methylsulfonyl) picolinamide]	1 to 5 µM	< 0.25 µM
Cc1cc([C@@H](C)Nc2ccc(Cl)nc2C(=O)NS(C)(=O)=O)c2nc(N3CCC[C@@H](Oc4ccc(C)nc4)C3)n(C)c(=O)c2c1 [Compound 368, 6-chloro-3-(((R)-1-(3,6-dimethyl-2-((R)-3-((6-methylpyridin-3-yl)oxy)piperidin-1-yl)-4-oxo-3,4-dihydroquinazolin-8-yl)ethyl)amino)-N-(methylsulfonyl) picolinamide]	≥ 5 µM	0.25 to 0.5 µM
Cc1cc([C@@H](C)Nc2ccc(Cl)nc2C(=O)NS(C)(=O)=O)c2nc(N3CCN(c4cnc(C)cn4)CC3)n(C)c(=O)c2c1 [Compound 369, (R)-6-chloro-3-((1-(3,6-dimethyl-2-(4-(5-methylpyrazin-2-yl)piperazin-1-yl)-4-oxo-3,4-dihydroquinazolin-8-yl)ethyl)amino)-N-(methylsulfonyl) picolinamide]	1 to 5 µM	< 0.25 µM
Cc1cc([C@@H](C)Nc2ccc(Cl)nc2C(=O)NS(C)(=O)=O)c2nc(N3CCC(c4cccc(=O)n4C)CC3)n(C)c(=O)c2c1 [Compound 370, (R)-6-chloro-3-((1-(3,6-dimethyl-2-(4-(1-methyl-6-oxo-1,6-dihydropyridin-2-yl)piperidin-1-yl)-4-oxo-3,4-dihydroquinazolin-8-yl)ethyl)amino)-N-(methylsulfonyl) picolinamide]	1 to 5 µM	< 0.25 µM
Cc1cc([C@@H](C)Nc2ccc(Cl)nc2C(=O)NS(C)(=O)=O)c2nc(N3CCC4(CCN(c5ccn(C)n5)C4)C3)n(C)c(=O)c2c1 (stereo partly drawn) [Compound 371, 6-chloro-3-(((1R)-1-(3,6-dimethyl-2-(7-(1-methyl-1H-pyrazol-3-yl)-2,7-diazaspiro[4.4]nonan-2-yl)-4-oxo-3,4-dihydroquinazolin-8-yl)ethyl)amino)-N-(methylsulfonyl) picolinamide]	1 to 5 µM	< 0.25 µM
Cc1cc([C@@H](C)Nc2ccc(Cl)nc2C(=O)NS(C)(=O)=O)c2nc(N3CCC(c4ccn(C)n4)CC3)n(C3CC3)c(=O)c2c1 [Compound 372, (R)-6-chloro-3-((1-(3-cyclopropyl-6-methyl-2-(4-(1-methyl-1H-pyrazol-3-yl)piperidin-1-yl)-4-oxo-3,4-dihydroquinazolin-8-yl)ethyl)amino)-N-(methylsulfonyl) picolinamide]	1 to 5 µM	< 0.25 µM
C[C@@H](Nc1ccc(Cl)nc1C(=O)NS(C)(=O)=O)c1cc(F)cc2c(=O)n(C)c(N3C[C@@H]4[C@H](C3)[C@H]4c3ccn(C)n3)nc12 [Compound 373, 6-chloro-3-(((R)-1-(6-fluoro-3-methyl-2-((1R,5S,6R)-6-(1-methyl-1H-pyrazol-3-yl)-3-azabicyclo[3.1.0]hexan-3-yl)-4-oxo-3,4-dihydroquinazolin-8-yl)ethyl)amino)-N-(methylsulfonyl) picolinamide]	1 to 5 µM	0.25 to 0.5 µM
C[C@@H](Nc1ccc(Cl)nc1C(=O)NS(C)(=O)=O)c1cc(F)cc2c(=O)n(C)c(N3C[C@@H]4[C@H](C3)[C@H]4c3ccnn3C)nc12 [Compound 374, 6-chloro-3-(((R)-1-(6-fluoro-3-methyl-2-((1R,5S,6R)-6-(1-methyl-1H-pyrazol-5-yl)-3-azabicyclo[3.1.0]hexan-3-yl)-4-oxo-3,4-dihydroquinazolin-8-yl)ethyl)amino)-N-(methylsulfonyl) picolinamide]	1 to 5 µM	< 0.25 µM
Cc1cc([C@@H](C)Nc2ccc(Cl)nc2C(=O)NS(C)(=O)=O)c2nc(N3CCC[C@@H](Oc4cnccn4)C3)n(C)c(=O)c2c1 [Compound 375, 6-chloro-3-(((R)-1-(3,6-dimethyl-4-oxo-2-((R)-3-(pyrazin-2-yloxy)piperidin-1-yl)-3,4-dihydroquinazolin-8-yl)ethyl)amino)-N-(methylsulfonyl) picolinamide]	≥ 5 µM	0.25 to 0.5 µM
Cc1cc([C@@H](C)Nc2ccc(Cl)nc2C(=O)NS(C)(=O)=O)c2nc(N3CCC[C@@H](Oc4cnc(C)cn4)C3)n(C)c(=O)c2c1 [Compound 376, 6-chloro-3-(((R)-1-(3,6-dimethyl-2-((R)-3-((5-methylpyrazin-2-yl)oxy)piperidin-1-yl)-4-oxo-3,4-dihydroquinazolin-8-yl)ethyl)amino)-N-(methylsulfonyl) picolinamide]	≥ 5 µM	0.25 to 0.5 µM
Cc1cc([C@@H](C)Nc2ccc(Cl)nc2C(=O)NS(C)(=O)=O)c2nc(N3CCC[C@H](Oc4cnccn4)C3)n(C)c(=O)c2c1 [Compound 377, 6-chloro-3-(((R)-1-(3,6-dimethyl-4-oxo-2-((S)-3-(pyrazin-2-yloxy)piperidin-1-yl)-3,4-dihydroquinazolin-8-yl)ethyl)amino)-N-(methylsulfonyl) picolinamide]	≥ 5 µM	0.25 to 0.5 µM
CO[C@H]1C[C@@H](S(=O)(=O)NC(=O)c2nc(Cl)ccc2N[C@H](C)c2cc(C)cc3c(=O)n(C)c(N4Cc5ccc(F)cc5C4)nc23)C1 [Compound 378, 6-chloro-3-(((R)-1-(2-(5-fluoroisoindolin-2-yl)-3,6-dimethyl-4-oxo-3,4-dihydroquinazolin-8-yl)ethyl)amino)-N-(((1s,3S)-3-methoxycyclobutyl)sulfonyl)picolinamide]	≥ 5 µM	0.25 to 0.5 µM
CO[C@H]1C[C@H](S(=O)(=O)NC(=O)c2nc(Cl)ccc2N[C@H](C)c2cc(C)cc3c(=O)n(C)c(N4Cc5ccc(F)cc5C4)nc23)C1 [Compound 379, 6-chloro-3-(((R)-1-(2-(5-fluoroisoindolin-2-yl)-3,6-dimethyl-4-oxo-3,4-dihydroquinazolin-8-yl)ethyl)amino)-N-(((1r,3R)-3-methoxycyclobutyl)sulfonyl)picolinamide]	≥ 5 µM	0.25 to 0.5 µM
C[C@@H](Nc1ccc(Cl)nc1C(=O)NS(C)(=O)=O)c1cc(C2CC2)cc2c(=O)n(C)c(N3C[C@@H]4[C@H](C3)[C@H]4c3ccn(C)n3)nc12 [Compound 382, 6-chloro-3-(((R)-1-(6-cyclopropyl-3-methyl-2-((1R,5S,6R)-6-(1-methyl-1H-pyrazol-3-yl)-3-azabicyclo[3.1.0]hexan-3-yl)-4-oxo-3,4-dihydroquinazolin-8-yl)ethyl)amino)-N-(methylsulfonyl) picolinamide]	1 to 5 µM	0.25 to 0.5 µM
Cc1cc([C@@H](C)Nc2ccc(Cl)nc2C(=O)NS(C)(=O)=O)c2nc(N3CCC[C@H](Oc4cnc(C)cn4)C3)n(C)c(=O)c2c1 [Compound 383, 6-chloro-3-(((R)-1-(3,6-dimethyl-2-((S)-3-((5-methylpyrazin-2-yl)oxy)piperidin-1-yl)-4-oxo-3,4-dihydroquinazolin-8-yl)ethyl)amino)-N-(methylsulfonyl) picolinamide]	≥ 5 µM	0.25 to 0.5 µM
Cc1cc([C@@H](C)Nc2ccc(Cl)nc2C(=O)NS(C)(=O)=O)c2nc(N3C[C@@H]4[C@H](C3)[C@H]4c3ccnc(C)c3)n(C)c(=O)c2c1 [Compound 384, 6-chloro-3-(((R)-1-(3,6-dimethyl-2-((1R,5S,6S)-6-(2-methylpyridin-4-yl)-3-azabicyclo[3.1.0]hexan-3-yl)-4-oxo-3,4-dihydroquinazolin-8-yl)ethyl)amino)-N-(methylsulfonyl) picolinamide]	1 to 5 µM	< 0.25 µM
Cc1cc([C@@H](C)Nc2ccc(Cl)nc2C(=O)NS(C)(=O)=O)c2nc(N3C[C@@H]4[C@H](C3)[C@H]4c3cccnc3C)n(C)c(=O)c2c1 [Compound 385, 6-chloro-3-(((R)-1-(3,6-dimethyl-2-((1R,5S,6S)-6-(2-methylpyridin-3-yl)-3-azabicyclo[3.1.0]hexan-3-yl)-4-oxo-3,4-dihydroquinazolin-8-yl)ethyl)amino)-N-(methylsulfonyl) picolinamide]	1 to 5 µM	< 0.25 µM
C[C@@H](Nc1ccc(Cl)nc1C(=O)NS(C)(=O)=O)c1cc(C2CC2)cc2c(=O)n(C)c(N3C[C@@H]4[C@H](C3)[C@H]4c3cnn(C)c3)nc12 [Compound 386, 6-chloro-3-(((R)-1-(6-cyclopropyl-3-methyl-2-((1R,5S,6S)-6-(1-methyl-1H-pyrazol-4-yl)-3-azabicyclo[3.1.0]hexan-3-yl)-4-oxo-3,4-dihydroquinazolin-8-yl)ethyl)amino)-N-(methylsulfonyl) picolinamide]	1 to 5 µM	< 0.25 µM
Cc1cc([C@@H](C)Nc2ccc(Cl)nc2C(=O)NS(C)(=O)=O)c2nc(N3C[C@@H]4[C@H](C3)[C@H]4c3cn(C)nn3)n(C)c(=O)c2c1 [Compound 387, 6-chloro-3-(((R)-1-(3,6-dimethyl-2-((1R,5S,6R)-6-(1-methyl-1H-1,2,3-triazol-4-yl)-3-azabicyclo[3.1.0]hexan-3-yl)-4-oxo-3,4-dihydroquinazolin-8-yl)ethyl)amino)-N-(methylsulfonyl) picolinamide]	1 to 5 µM	< 0.25 µM
